Measured values from PMC12670400, “LEKTI-Grafted Sunflower Trypsin Inhibitor: A Potential Therapeutic for Skin Diseases” (Journal of Medicinal Chemistry, 2025).
Bridge positions count the residues as written; N and C are the ends. Peptide text beside a SMILES is read from it.

Target: T1, KLK5 (Homo sapiens, UniProt Q9Y337)
T1 construct: purchased R&D Systems 1108-SE
T1 sequence (Q9Y337 23-293): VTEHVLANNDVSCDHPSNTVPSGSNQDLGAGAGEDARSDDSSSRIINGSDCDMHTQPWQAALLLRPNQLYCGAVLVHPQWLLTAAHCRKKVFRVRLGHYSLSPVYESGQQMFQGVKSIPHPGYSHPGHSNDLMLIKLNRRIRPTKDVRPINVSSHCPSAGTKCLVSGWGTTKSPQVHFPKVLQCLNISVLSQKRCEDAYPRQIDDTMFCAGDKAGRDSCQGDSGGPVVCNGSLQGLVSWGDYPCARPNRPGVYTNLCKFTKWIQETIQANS
Experiment: Protease activity assay: inhibition of recombinant KLK5 (Boc-VPR-AMC substrate)
Format: biochemical
Conditions: ratio of IC50 values
Protocol: Inhibitory activity against KLK5 was evaluated using the fluorogenic substrate Boc-VPR-AMC for KLK5 (Table ). […] The P1–P1′ reactive site (Arg5 to Ser6) is critical for inhibitor binding, with the P1′ position contributing up to 50% of the total association energy. , The conserved serine at P1′ in Bowman-Birk inhibitors (BBIs) is essential for function. […] Preservation of serine in the P1′ position restored inhibitory activity seen in 5 and 6. Preserving the native serine restored efficacy to the nanomolar range (5: 31 ± 7 nM; 6: 114 ± 11 nM).
Methods for biological experiment
SFTI analogues were created by individual amino acid substitutions in PYMOL (Python Molecular Graphics System) using the existing solution NMR structure of native SFTI - 1 (1JBL) found in the RCSB (Research Collaboratory for Structural Bioinformatics) database. Residues of 2 were mutated as follows: L5R, I10H, and F12W with conserved SFTI-1 backbone structure. Other SFTI based analogues were further modified using PYMOL. Currently, there are no SFTI-1 and Kallikrein 5 co-crystal structures found in the RCSB database. Superimposing the existing crystal structure of SFTI-1 and Trypsin complex (4XOJ) with Kallikrein 5 crystal structure (2PSX) was performed with PYMOL. Ab-initio docking between KLK5 and 2 were performed with HADDOCK 2.4 1, 2, with binding active site parameter set to Arg2, Cys3, Thr4, Arg5, Ser6 for 2 and Ser195, His57, and Asp102 for KLK5 catalytic triad. PRODIGY 3-5, set at 25 °C, was used to predict dissociation constant and binding interactions of docked clusters. Structural visualization and alignment were performed with PYMOL 6, and comparative sequence analysis was performed with MEGA11 7.
A fluorescence spectrometer using SpectraMax® i3x plate reader (Molecular Devices, United States) was used to measure the relative fluorescence unit (RFU) on a 96-well black microplate (Grenier Bio-one, cat no. 655074). The wavelengths were set to 360/460 nm (excitation/emission) for the substrate Boc-VPR-AMC (Bachem AG, cat no. 4003460) and 320/405nm for the substrate Mca-RPKPVE-Nval-WRK(Dnp)-NH2 Fluorogenic MMP Substrate (R&D Systems Biotechne, cat no.ES002). The Boc-VPR-AMC stock solution was prepared by dissolving the solid form in dimethyl sulfoxide to 100 mM. Mca-RPKPVE-Nval-WRK(Dnp)-NH2 fluorogenic MMP Substrate is supplied as stock solution at 10.0 mg/mL in dimethyl sulfoxide. Boc-VPR-AMC was used as a substrate for KLK5, 8 and 14. Mca-RPKPVE-Nval-WRK(Dnp)-NH2 was used as a substrate for KLK7. The ligand-only solution serves as a negative control (minimum RFU, 100% inhibition), and enzyme-only was served as positive (maximum RFU, 0% inhibition). The activities of proteases were measured and readout against the standard curve made in serial dilutions of tested recombinant KLKs, ranging from 0nM to 60nM. Each assay was done in triplicates and repeated at least for three times […]
Assessment of analogue mediated inhibition of KLK5, KLK7, KLK8, and KLK14 […]
Recombinant KLK5 (R&D Systems, cat no. 1108-SE) was diluted to a final concentration of 10 nM in 1X PBS (pH 8.0). KLK5 was pre -incubated on ice for 1 hour with serial dilutions of SFTI-derived analogues to assess inhibitory activity. After incubation, 20 µL of each mixture was transferred to we lls of a 96-well microplate in triplicates. The enzymatic reaction was initiated by adding 100 µL of Boc -VPR-AMC substrate (final concentration 100 µM) to each well. Fluorescence (RFU) was measured using a SpectraMax® i3x plate reader with chamber temperature maintained at 37°C. Readings were started at 0 minutes (baseline) and another […]
Recombinant KLK7 (R&D Systems , cat no. 2624-SE) and KLK14 (R&D Systems, cat no. 2664-SE) were activated by adding 1 mM CaCl ₂ 0.05% v/v Brij-35 (Sigma, cat no. […]
incubated at 37°C for 1 hour. Reactions were stopped by adding EDTA to a final concentration of 50 mM (Sigma, cat no. EDS-100G) KLK8 (catalytic domain only; R&D Systems, cat no. 2025-SE-010) was activated separately with 11 nM lysyl […]

## C[C@@H](O)[C@@H]1NC(=O)[C@@H]2CSSC[C@H](NC(=O)[C@H](CCC(=O)O)NC(=O)[C@@H]3CCCN3C(=O)[C@@H]3CCCN3C(=O)[C@H](CC(N)=O)NC(=O)[C@H](CO)NC(=O)[C@H](CCCNC(=N)N)NC1=O)C(=O)N[C@@H](Cc1c[nH]c3ccccc13)C(=O)N1CCC[C@H]1C(=O)N[C@@H](CC(N)=O)C(=O)NCC(=O)N[C@@H](Cc1ccccc1)C(=O)N2 [compound 7] (cyclo(GFCTRSNPPECWPN); disulfide 3-11)
  increase in KLK5 inhibitory potency (IC50) compared to 2: 4 fold
  increase in KLK5 inhibitory potency (IC50) relative to 1: 16 fold
